Values quoted from earlier work in patent US10208167B2, “Cyclodextrins with one or more poly(ethylene glycol) units, inclusion compounds and drug delivery vehicles including the same, and methods of making and using the same” (The Board of Trustees of the California State University, priority 2015, dated 2019).

Columns and labels:
[1] = system: human salivary and pancreatic amylases

Compound	hydrolysis by human salivary and pancreatic amylases [1]	fermentation in the intestinal microflora (intestinal microflora)
OC[C@H]1O[C@@H]2O[C@H]3[C@H](O)[C@@H](O)[C@@H](O[C@H]4[C@H](O)[C@@H](O)[C@@H](O[C@H]5[C@H](O)[C@@H](O)[C@@H](O[C@H]6[C@H](O)[C@@H](O)[C@@H](O[C@H]7[C@H](O)[C@@H](O)[C@@H](O[C@H]8[C@H](O)[C@@H](O)[C@@H](O[C@H]9[C@H](O)[C@@H](O)[C@@H](O[C@H]1[C@H](O)[C@H]2O)O[C@@H]9CO)O[C@@H]8CO)O[C@@H]7CO)O[C@@H]6CO)O[C@@H]5CO)O[C@@H]4CO)O[C@@H]3CO [γ-CD, γ-cyclodextrin]	not hydrolyzed	
OC[C@H]1O[C@@H]2O[C@H]3[C@H](O)[C@@H](O)[C@@H](O[C@H]4[C@H](O)[C@@H](O)[C@@H](O[C@H]5[C@H](O)[C@@H](O)[C@@H](O[C@H]6[C@H](O)[C@@H](O)[C@@H](O[C@H]7[C@H](O)[C@@H](O)[C@@H](O[C@H]1[C@H](O)[C@H]2O)O[C@@H]7CO)O[C@@H]6CO)O[C@@H]5CO)O[C@@H]4CO)O[C@@H]3CO [α-CD, α-cyclodextrin]	not hydrolyzed	can be fermented
